Results: PubChem BioAssay (NCI)
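Each compound was tested at five concentrations against cells in 96-well plates for 48 hours. At the GI50, growth is halved. At the TGI there is no net growth.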

Legend:
Assay in all cases: inhibition of tumour cell growth, NCI panel, 48 h
786-0 renal = system: 786-0 renal
A498 renal = system: A498 renal
A549 NSCLC = system: A549 NSCLC
ACHN renal = system: ACHN renal
CCRF-CEM leukemia = system: CCRF-CEM leukemia
COLO 205 colon = system: COLO 205 colon
DU-145 prostate = system: DU-145 prostate
EKVX NSCLC = system: EKVX NSCLC
HCC-2998 colon = system: HCC-2998 colon
HCT-116 colon = system: HCT-116 colon
HCT-15 colon = system: HCT-15 colon
HL-60(TB) leukemia = system: HL-60(TB) leukemia
HOP-62 NSCLC = system: HOP-62 NSCLC
HOP-92 NSCLC = system: HOP-92 NSCLC
HS 578T breast = system: HS 578T breast
HT29 colon = system: HT29 colon
IGROV1 ovarian = system: IGROV1 ovarian
K-562 leukemia = system: K-562 leukemia
KM12 colon = system: KM12 colon
M14 melanoma = system: M14 melanoma
MALME-3M melanoma = system: MALME-3M melanoma
MCF7 breast = system: MCF7 breast
MDA-MB-231 breast = system: MDA-MB-231 breast
MDA-MB-435 = system: MDA-MB-435
MOLT-4 leukemia = system: MOLT-4 leukemia
NCI-H226 lung = system: NCI-H226 lung
NCI-H23 lung = system: NCI-H23 lung
NCI-H460 lung = system: NCI-H460 lung
NCI/ADR-RES ovarian = system: NCI/ADR-RES ovarian
OVCAR-4 ovarian = system: OVCAR-4 ovarian
OVCAR-5 ovarian = system: OVCAR-5 ovarian
OVCAR-8 ovarian = system: OVCAR-8 ovarian
RPMI-8226 leukemia = system: RPMI-8226 leukemia
RXF 393 renal = system: RXF 393 renal
SF-268 CNS = system: SF-268 CNS
SF-295 CNS = system: SF-295 CNS
SF-539 CNS = system: SF-539 CNS
SK-MEL-28 melanoma = system: SK-MEL-28 melanoma
SK-MEL-5 melanoma = system: SK-MEL-5 melanoma
SK-OV-3 ovarian = system: SK-OV-3 ovarian
SN12C renal = system: SN12C renal
SNB-19 CNS = system: SNB-19 CNS
SNB-75 CNS = system: SNB-75 CNS
SR leukemia = system: SR leukemia
SW-620 colon = system: SW-620 colon
T-47D breast = system: T-47D breast
TK-10 renal = system: TK-10 renal
U251 CNS = system: U251 CNS
UACC-257 melanoma = system: UACC-257 melanoma
UACC-62 melanoma = system: UACC-62 melanoma
UO-31 renal = system: UO-31 renal
BT-549 breast = system: BT-549 breast
CAKI-1 renal = system: CAKI-1 renal
LOX IMVI melanoma = system: LOX IMVI melanoma
NCI-H522 lung = system: NCI-H522 lung
OVCAR-3 ovarian = system: OVCAR-3 ovarian
PC-3 prostate = system: PC-3 prostate
SK-MEL-2 melanoma = system: SK-MEL-2 melanoma

Cc1cccc(NC2=NCCO2)c1Cl
TGI (786-0 renal): > 100 µM | TGI (A498 renal): > 100 µM | TGI (A549 NSCLC): > 100 µM | TGI (ACHN renal): > 100 µM | TGI (CCRF-CEM leukemia): > 100 µM | TGI (COLO 205 colon): > 100 µM | TGI (DU-145 prostate): > 100 µM | TGI (EKVX NSCLC): > 100 µM | TGI (HCC-2998 colon): > 100 µM | TGI (HCT-116 colon): > 100 µM | TGI (HCT-15 colon): > 100 µM | TGI (HL-60(TB) leukemia): > 100 µM | TGI (HOP-62 NSCLC): > 100 µM | TGI (HOP-92 NSCLC): > 100 µM | TGI (HS 578T breast): > 100 µM | TGI (HT29 colon): > 100 µM | TGI (IGROV1 ovarian): > 100 µM | TGI (K-562 leukemia): > 100 µM | TGI (KM12 colon): > 100 µM | TGI (M14 melanoma): > 100 µM | TGI (MALME-3M melanoma): > 100 µM | TGI (MCF7 breast): > 100 µM | TGI (MDA-MB-231 breast): > 100 µM | TGI (MDA-MB-435): > 100 µM | TGI (MOLT-4 leukemia): > 100 µM | TGI (NCI-H226 lung): > 100 µM | TGI (NCI-H23 lung): > 100 µM | TGI (NCI-H460 lung): > 100 µM | TGI (NCI/ADR-RES ovarian): > 100 µM | TGI (OVCAR-4 ovarian): > 100 µM | TGI (OVCAR-5 ovarian): > 100 µM | TGI (OVCAR-8 ovarian): > 100 µM | TGI (RPMI-8226 leukemia): > 100 µM | TGI (RXF 393 renal): > 100 µM | TGI (SF-268 CNS): > 100 µM | TGI (SF-295 CNS): > 100 µM | TGI (SF-539 CNS): > 100 µM | TGI (SK-MEL-28 melanoma): > 100 µM | TGI (SK-MEL-5 melanoma): > 100 µM | TGI (SK-OV-3 ovarian): > 100 µM | TGI (SN12C renal): > 100 µM | TGI (SNB-19 CNS): > 100 µM | TGI (SNB-75 CNS): > 100 µM | TGI (SR leukemia): > 100 µM | TGI (SW-620 colon): > 100 µM | TGI (T-47D breast): > 100 µM | TGI (TK-10 renal): > 100 µM | TGI (U251 CNS): > 100 µM | TGI (UACC-257 melanoma): > 100 µM | TGI (UACC-62 melanoma): > 100 µM | TGI (UO-31 renal): > 100 µM

O=C1c2ccn(CCCCN3CCC(O)CC3)c2C(=O)c2c1c(O)c1ccccc1c2O
GI50 (786-0 renal): 13.1 µM | TGI (786-0 renal): 31.1 µM | GI50 (A498 renal): 23.7 µM | TGI (A498 renal): 55.4 µM | GI50 (A549 NSCLC): 26.2 µM | TGI (A549 NSCLC): 68.9 µM | GI50 (ACHN renal): 15.2 µM | TGI (ACHN renal): 32.8 µM | GI50 (BT-549 breast): 13.2 µM | TGI (BT-549 breast): 51.6 µM | GI50 (CAKI-1 renal): 13.9 µM | TGI (CAKI-1 renal): 43.7 µM | GI50 (COLO 205 colon): 37.2 µM | TGI (COLO 205 colon): > 66.2 µM | GI50 (DU-145 prostate): 7.98 µM | GI50 (EKVX NSCLC): 14.5 µM | TGI (EKVX NSCLC): 46.5 µM | GI50 (HCC-2998 colon): 20.6 µM | TGI (HCC-2998 colon): > 59.5 µM | GI50 (HCT-116 colon): 1.84 µM | GI50 (HCT-15 colon): 2.68 µM | TGI (HCT-15 colon): 8.83 µM | GI50 (HOP-62 NSCLC): 16.3 µM | TGI (HOP-62 NSCLC): 34.9 µM | GI50 (HOP-92 NSCLC): 8.95 µM | TGI (HOP-92 NSCLC): 41.1 µM | GI50 (HS 578T breast): 29.2 µM | TGI (HS 578T breast): > 83.8 µM | GI50 (HT29 colon): 46.9 µM | TGI (HT29 colon): > 100 µM | GI50 (IGROV1 ovarian): 2.53 µM | TGI (IGROV1 ovarian): > 100 µM | GI50 (K-562 leukemia): 1.77 µM | TGI (K-562 leukemia): > 100 µM | GI50 (KM12 colon): 1.96 µM | TGI (KM12 colon): 5.2 µM | GI50 (LOX IMVI melanoma): 8.04 µM | GI50 (M14 melanoma): 1.95 µM | TGI (M14 melanoma): 3.69 µM | GI50 (MALME-3M melanoma): 16.5 µM | TGI (MALME-3M melanoma): 41.8 µM | GI50 (MDA-MB-231 breast): 13.3 µM | TGI (MDA-MB-231 breast): 38.3 µM | GI50 (NCI-H226 lung): 23.7 µM | TGI (NCI-H226 lung): 60.2 µM | GI50 (NCI-H23 lung): 1.97 µM | TGI (NCI-H23 lung): 3.84 µM | GI50 (NCI-H522 lung): 2.86 µM | TGI (NCI-H522 lung): 14.4 µM | GI50 (NCI/ADR-RES ovarian): 78.8 µM | TGI (NCI/ADR-RES ovarian): > 100 µM | GI50 (OVCAR-3 ovarian): 2.24 µM | TGI (OVCAR-3 ovarian): 4.95 µM | GI50 (OVCAR-4 ovarian): 17.9 µM | TGI (OVCAR-4 ovarian): > 64.4 µM | GI50 (OVCAR-5 ovarian): 33.4 µM | TGI (OVCAR-5 ovarian): > 66.8 µM | GI50 (OVCAR-8 ovarian): 25.6 µM | TGI (OVCAR-8 ovarian): 75.3 µM | GI50 (PC-3 prostate): 1.35 µM | TGI (PC-3 prostate): 3.16 µM | GI50 (SF-268 CNS): 17.8 µM | TGI (SF-268 CNS): > 74.3 µM | GI50 (SF-295 CNS): 3.25 µM | TGI (SF-295 CNS): 9.69 µM | GI50 (SF-539 CNS): 43.8 µM | TGI (SF-539 CNS): > 100 µM | GI50 (SK-MEL-2 melanoma): 2.45 µM | TGI (SK-MEL-2 melanoma): 8.32 µM | GI50 (SK-MEL-28 melanoma): 13.3 µM | TGI (SK-MEL-28 melanoma): > 41 µM | GI50 (SK-MEL-5 melanoma): 16.6 µM | TGI (SK-MEL-5 melanoma): 96.2 µM | GI50 (SK-OV-3 ovarian): 41.3 µM | TGI (SK-OV-3 ovarian): > 74.6 µM | GI50 (SN12C renal): 15.2 µM | TGI (SN12C renal): 34.9 µM | GI50 (SNB-19 CNS): > 52.2 µM | TGI (SNB-19 CNS): > 86.9 µM | GI50 (SNB-75 CNS): 42.6 µM | TGI (SNB-75 CNS): > 61.2 µM | GI50 (SR leukemia): > 100 µM | TGI (SR leukemia): > 100 µM | GI50 (SW-620 colon): 4.48 µM | TGI (SW-620 colon): > 100 µM | GI50 (T-47D breast): > 46 µM | TGI (T-47D breast): > 67.6 µM | GI50 (TK-10 renal): 1.65 µM | TGI (TK-10 renal): 3.36 µM | GI50 (U251 CNS): 15.4 µM | TGI (U251 CNS): 43.4 µM | GI50 (UACC-257 melanoma): 17.3 µM | TGI (UACC-257 melanoma): > 64.1 µM | GI50 (UACC-62 melanoma): 2.13 µM | TGI (UACC-62 melanoma): 5.36 µM | GI50 (UO-31 renal): 2.4 µM | TGI (UO-31 renal): 11.9 µM
